From ChEMBL document CHEMBL1201862, “PubChem BioAssay data set” (2004)
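Tested at 5 concentrations; 48 h exposure; 96-well plates; endpoints linearly interpolated, else capped at highest concentration. GI50 marks 50% less growth.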 Activity calls are given as the source filed them. No stated cut-off is given here; in the data, active = GI50 up to about 1.1 µM and inactive = higher.

Experiments:
Assay in all cases: inhibition of tumour cell growth, NCI panel, 48 h
SK-MEL-28 = system: SK-MEL-28
NCI-H226 = system: NCI-H226
OVCAR-8 = system: OVCAR-8
TK-10 = system: TK-10
NCI-H460 = system: NCI-H460
M14 = system: M14
SK-MEL-5 = system: SK-MEL-5
NCI-H23 = system: NCI-H23
IGROV-1 = system: IGROV-1
HL-60 = system: HL-60
OVCAR-5 = system: OVCAR-5
HCT-116 = system: HCT-116
DU-145 = system: DU-145
HT-29 = system: HT-29
NCI-H522 = system: NCI-H522
PC-3 = system: PC-3
CCRF-CEM = system: CCRF-CEM
SW-620 = system: SW-620
HCC 2998 = system: HCC 2998

Measured: GI50

COc1cc2nc(-c3cccs3)nc(N3C(c4cc(OC)c(OC)c(OC)c4)=NNC(=O)c4ccccc43)c2cc1OC
inactive: SK-MEL-28 21.9 µM | NCI-H226 > 100 µM | OVCAR-8 3.4 µM | TK-10 22.8 µM | NCI-H460 4.82 µM | M14 15.3 µM | SK-MEL-5 34.9 µM | NCI-H23 14 µM | IGROV-1 33.9 µM | HL-60 54.7 µM | OVCAR-5 21.8 µM | HCT-116 > 100 µM | DU-145 29 µM | HT-29 23.3 µM | NCI-H522 38 µM | PC-3 29.6 µM

CC(C)(C)c1cc(C2NCCO2)cc(C(C)(C)C)c1O (stereo unspecified)
inactive: SK-MEL-28 > 100 µM | NCI-H226 > 100 µM | OVCAR-8 77.3 µM | CCRF-CEM > 100 µM | TK-10 37.1 µM | NCI-H460 > 100 µM | SK-MEL-5 > 100 µM | NCI-H23 51.4 µM | IGROV-1 96.6 µM | HL-60 > 100 µM | OVCAR-5 > 100 µM | HCT-116 > 100 µM | DU-145 > 100 µM | HT-29 > 100 µM | NCI-H522 > 100 µM | PC-3 82 µM | SW-620 > 100 µM

Clc1ccccc1/C=C/c1nsc(/C=C/c2ccccc2Cl)n1
inactive: SK-MEL-28 > 100 µM | NCI-H226 > 100 µM | OVCAR-8 94 µM | CCRF-CEM 22.7 µM | TK-10 30.8 µM | NCI-H460 21.4 µM | M14 70.6 µM | SK-MEL-5 36.1 µM | IGROV-1 84.1 µM | HL-60 21.6 µM | OVCAR-5 > 100 µM | HCT-116 34.8 µM | DU-145 > 100 µM | HT-29 35.2 µM | NCI-H522 33.1 µM | PC-3 30.1 µM

Cc1cc(C)n(CN(Cn2nc(C)cc2C)c2ccccc2)n1
inactive: SK-MEL-28 19.6 µM | OVCAR-8 20.9 µM | CCRF-CEM 23.3 µM | TK-10 46.1 µM | NCI-H460 35.1 µM | M14 16.3 µM | SK-MEL-5 20.4 µM | NCI-H23 18.1 µM | IGROV-1 25.5 µM | HL-60 2.99 µM | OVCAR-5 30.1 µM | HCT-116 19.8 µM | DU-145 30.3 µM | HT-29 17.6 µM | NCI-H522 23.2 µM | PC-3 27.8 µM | SW-620 18.2 µM

CCN(CC)CCSc1nc(-c2c[nH]c3nc(C)ccc3c2=O)n[nH]1
inactive: SK-MEL-28 > 100 µM | NCI-H226 > 100 µM | OVCAR-8 > 100 µM | CCRF-CEM > 100 µM | TK-10 > 100 µM | NCI-H460 > 100 µM | M14 > 100 µM | SK-MEL-5 > 100 µM | NCI-H23 > 100 µM | IGROV-1 > 100 µM | HL-60 > 100 µM | OVCAR-5 > 100 µM | HCT-116 > 100 µM | DU-145 > 100 µM | HT-29 > 100 µM | NCI-H522 > 100 µM | PC-3 > 100 µM | SW-620 > 100 µM

CCOC(=O)c1c2c(n(C)c1-c1ccccc1)C(=O)C(C)=CC2=O
inactive: SK-MEL-28 13.9 µM | NCI-H226 11 µM | OVCAR-8 5.7 µM | CCRF-CEM 2.51 µM | TK-10 8.43 µM | NCI-H460 20.8 µM | M14 3.66 µM | SK-MEL-5 9.62 µM | NCI-H23 11.6 µM | IGROV-1 5.46 µM | HL-60 2.94 µM | OVCAR-5 6.05 µM | HCT-116 3.6 µM | DU-145 17.5 µM | HT-29 5.79 µM | NCI-H522 1.69 µM | PC-3 11.4 µM | SW-620 4.06 µM

COc1ccc(N)c(C(=O)CCNC(C)=O)c1 [KINURENAMINE]
inactive: NCI-H226 > 100 µM | OVCAR-8 > 100 µM | CCRF-CEM > 100 µM | TK-10 > 100 µM | NCI-H460 > 100 µM | M14 > 100 µM | SK-MEL-5 > 100 µM | NCI-H23 > 100 µM | IGROV-1 > 100 µM | HL-60 > 100 µM | OVCAR-5 > 100 µM | HCT-116 > 100 µM | DU-145 > 100 µM | HT-29 > 100 µM | NCI-H522 > 100 µM | PC-3 > 100 µM | SW-620 > 100 µM

Cc1ccc(S(=O)(=O)Nn2c(O)c(C#N)c(-c3ccc([N+](=O)[O-])cc3)c(C#N)c2=O)cc1
inactive: SK-MEL-28 > 100 µM | NCI-H226 > 100 µM | OVCAR-8 > 100 µM | CCRF-CEM > 100 µM | TK-10 > 100 µM | NCI-H460 > 100 µM | M14 > 100 µM | SK-MEL-5 > 100 µM | IGROV-1 > 100 µM | HL-60 > 100 µM | OVCAR-5 > 100 µM | HCT-116 > 100 µM | HCC 2998 > 100 µM | HT-29 > 100 µM | NCI-H522 > 100 µM | PC-3 > 100 µM | SW-620 > 100 µM

O=C(Nc1ccc(C(F)(F)F)cc1)NC(F)(F)F
inactive: SK-MEL-28 > 100 µM | OVCAR-8 > 100 µM | CCRF-CEM > 100 µM | TK-10 35.9 µM | M14 > 100 µM | SK-MEL-5 > 100 µM | NCI-H23 > 100 µM | IGROV-1 > 100 µM | HL-60 > 100 µM | OVCAR-5 > 100 µM | HCT-116 > 100 µM | HCC 2998 > 100 µM | HT-29 > 100 µM | PC-3 > 100 µM | SW-620 > 100 µM
